Source: patent US20210070748A1, “INHIBITORS OF BRUTONS TYROSINE KINASE” (Pharmacyclics LLC, priority 2015, published 2021)

Key:
Type in all cases: biochemical
BTK-WT = molecular target: T1, BTK-WT (Homo sapiens, UniProt Q06187); assay: Btk in vitro inhibitory activity (one of Method A TR-FRET, Method B electrophoretic mobility shift, Method C radiometric filter binding); conditions: D-compounds panel data; read-out: IC50 BTK-WT
T1 construct: purified from insect cells as a full-length construct containing an N-terminal 6X-His tag; His6 (N); made in house; host or cells: insect cells (baculovirus Sf21 in Method B)
T1 sequence (Q06187 whole entry): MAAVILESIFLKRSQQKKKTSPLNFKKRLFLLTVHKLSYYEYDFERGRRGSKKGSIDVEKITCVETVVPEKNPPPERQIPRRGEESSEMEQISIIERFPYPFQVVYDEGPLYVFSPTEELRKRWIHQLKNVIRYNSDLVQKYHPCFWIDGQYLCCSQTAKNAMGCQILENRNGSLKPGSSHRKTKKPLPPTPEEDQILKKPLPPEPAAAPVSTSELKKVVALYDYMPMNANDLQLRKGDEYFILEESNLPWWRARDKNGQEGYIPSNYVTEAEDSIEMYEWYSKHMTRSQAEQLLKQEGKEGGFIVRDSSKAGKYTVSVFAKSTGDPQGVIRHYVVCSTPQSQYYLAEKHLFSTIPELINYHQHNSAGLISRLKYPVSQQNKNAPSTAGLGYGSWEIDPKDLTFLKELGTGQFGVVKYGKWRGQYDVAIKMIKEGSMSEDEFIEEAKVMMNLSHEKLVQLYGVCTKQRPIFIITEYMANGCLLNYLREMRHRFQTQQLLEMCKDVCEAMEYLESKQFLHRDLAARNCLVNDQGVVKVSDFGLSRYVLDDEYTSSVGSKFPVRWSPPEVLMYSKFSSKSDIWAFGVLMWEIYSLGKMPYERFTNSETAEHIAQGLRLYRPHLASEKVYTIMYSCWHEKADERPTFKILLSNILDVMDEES

LCK = LCK (Homo sapiens, UniProt P06239); assay: Inhibition of a panel of kinases, in vitro HotSpot kinase assay: LCK; conditions: D-compounds panel data; 1 μM ATP; read-out: IC50 LCK
LCK, sequence (P06239 whole entry): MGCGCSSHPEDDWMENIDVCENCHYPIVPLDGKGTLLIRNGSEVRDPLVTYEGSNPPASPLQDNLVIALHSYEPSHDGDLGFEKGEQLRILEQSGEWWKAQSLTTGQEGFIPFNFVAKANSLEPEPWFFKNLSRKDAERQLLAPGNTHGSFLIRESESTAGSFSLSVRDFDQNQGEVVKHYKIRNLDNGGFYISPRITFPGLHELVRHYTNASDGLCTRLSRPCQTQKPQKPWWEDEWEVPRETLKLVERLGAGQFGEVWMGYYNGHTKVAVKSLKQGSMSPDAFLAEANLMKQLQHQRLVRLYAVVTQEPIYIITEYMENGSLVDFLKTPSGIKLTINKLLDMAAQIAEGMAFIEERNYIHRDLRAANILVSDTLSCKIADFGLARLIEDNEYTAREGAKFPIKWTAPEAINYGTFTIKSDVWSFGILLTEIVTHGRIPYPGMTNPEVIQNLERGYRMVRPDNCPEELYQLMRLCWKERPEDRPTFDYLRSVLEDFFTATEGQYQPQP

SRC = SRC (Homo sapiens, UniProt P12931); assay: Inhibition of a panel of kinases, in vitro HotSpot kinase assay: SRC; conditions: D-compounds panel data; 1 μM ATP
SRC, sequence (P12931 whole entry): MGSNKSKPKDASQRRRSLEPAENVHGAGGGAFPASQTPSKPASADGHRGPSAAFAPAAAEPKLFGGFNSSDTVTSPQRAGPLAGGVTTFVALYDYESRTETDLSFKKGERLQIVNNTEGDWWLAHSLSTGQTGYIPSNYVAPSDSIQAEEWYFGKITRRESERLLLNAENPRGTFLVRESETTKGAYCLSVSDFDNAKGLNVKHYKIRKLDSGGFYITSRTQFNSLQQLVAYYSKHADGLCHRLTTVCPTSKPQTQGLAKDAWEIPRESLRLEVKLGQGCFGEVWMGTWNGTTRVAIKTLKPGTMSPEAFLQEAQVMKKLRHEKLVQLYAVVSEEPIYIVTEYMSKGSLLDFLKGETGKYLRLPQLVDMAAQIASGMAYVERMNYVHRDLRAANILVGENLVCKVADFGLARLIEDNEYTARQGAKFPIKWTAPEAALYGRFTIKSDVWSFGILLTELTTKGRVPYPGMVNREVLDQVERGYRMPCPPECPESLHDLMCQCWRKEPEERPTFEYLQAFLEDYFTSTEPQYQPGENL
Experimental: (§1) The degree of inhibition of a panel of kinases is determined using the in vitro HotSpot kinase assay (purified enzymes, ^33P-ATP, an appropriate substrate and 1 μM ATP).

TEC = molecular target: T2, TEC (Homo sapiens, UniProt P42680); assay: Inhibition of a panel of kinases, in vitro HotSpot kinase assay: TEC; conditions: D-compounds panel data; 1 μM ATP
T2 sequence (P42680 1-631): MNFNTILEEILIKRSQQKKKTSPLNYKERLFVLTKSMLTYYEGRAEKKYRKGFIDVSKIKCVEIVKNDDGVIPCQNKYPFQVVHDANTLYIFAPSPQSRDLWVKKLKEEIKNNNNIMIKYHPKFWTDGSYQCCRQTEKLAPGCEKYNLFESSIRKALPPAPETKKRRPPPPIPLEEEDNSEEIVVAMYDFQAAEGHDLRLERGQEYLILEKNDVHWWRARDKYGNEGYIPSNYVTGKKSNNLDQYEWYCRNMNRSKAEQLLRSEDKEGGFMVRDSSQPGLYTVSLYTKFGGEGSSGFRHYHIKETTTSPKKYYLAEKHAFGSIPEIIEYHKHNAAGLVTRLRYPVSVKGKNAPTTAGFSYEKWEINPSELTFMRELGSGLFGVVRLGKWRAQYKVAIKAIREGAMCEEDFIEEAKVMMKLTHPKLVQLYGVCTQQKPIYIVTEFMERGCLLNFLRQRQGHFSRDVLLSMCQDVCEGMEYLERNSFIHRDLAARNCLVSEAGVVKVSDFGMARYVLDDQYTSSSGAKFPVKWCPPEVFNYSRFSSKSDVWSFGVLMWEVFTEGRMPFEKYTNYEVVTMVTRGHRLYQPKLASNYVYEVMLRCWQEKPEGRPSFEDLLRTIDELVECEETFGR
Experimental: as §1

Structure (SMILES) | IC50 (BTK-WT) [nM] | IC50 (LCK) [nM] | IC50 (SRC) [nM] | IC50 (TEC) [nM]
CCOCCOc1ccc(Nc2nc(N3CCC[C@@H](NC(=O)c4ccc(C5CC5)cc4)[C@H]3C)cnc2C(N)=O)cc1 [Example D-299, 5-[(2R,3R)-3-(4-cyclopropylbenzamido)-2-methylpiperidin-1-yl]-3-{[4-(2-ethoxyethoxy)phenyl]amino}pyrazine-2-carboxamide] | 10 to 100 | > 10000 | 1000 to 10000 | 10 to 100
C[C@@H]1[C@H](NC(=O)c2ccc(C3CC3)cc2)CCCN1c1cnc(C(N)=O)c(NCC2=CCN(C)CC2)n1 [Example D-300, 5-[(2R,3R)-3-(4-cyclopropylbenzamido)-2-methylpiperidin-1-yl]-3-{[(1-methyl-1,2,3,6-tetrahydropyridin-4-yl)methyl]amino}pyrazine-2-carboxamide] | > 10000 | > 10000 | > 10000 | > 10000
C[C@@H]1[C@H](NC(=O)c2ccc(C(C)(C)O)cc2F)CCCN1c1cnc(C(N)=O)c(Nc2cnn(C)c2)n1 [Example D-302, 5-[(2R,3R)-3-[2-fluoro-4-(2-hydroxypropan-2-yl)benzamido]-2-methylpiperidin-1-yl]-3-[(1-methyl-1H-pyrazol-4-yl)amino]pyrazine-2-carboxamide] | ≤ 10 | 10 to 100 | 10 to 100 | ≤ 10
C[C@@H]1[C@H](NC(=O)c2ccc(C3CC3)cc2)CCCN1c1cnc(C(N)=O)c(Nc2ccc3c(c2)CCOC3)n1 [Example D-303, 5-[(2R,3R)-3-(4-cyclopropylbenzamido)-2-methylpiperidin-1-yl]-3-[(3,4-dihydro-1H-2-benzopyran-6-yl)amino]pyrazine-2-carboxamide] | 10 to 100 | > 10000 | 1000 to 10000 | 10 to 100
CCN(C)C(=O)N[C@@H]1CCCN(c2cnc(C(N)=O)c(Nc3cnn(C)c3)n2)[C@@H]1C [Example D-304, 5-[(2R,3R)-3-{[ethyl(methyl)carbamoyl]amino}-2-methylpiperidin-1-yl]-3-[(1-methyl-1H-pyrazol-4-yl)amino]pyrazine-2-carboxamide] | ≤ 10 | 100 to 1000 | 100 to 1000 | 10 to 100

Other lines, results leading:

IC50 (BTK-WT) [nM] | IC50 (LCK) [nM] | IC50 (SRC) [nM] | IC50 (TEC) [nM] | Structure (SMILES)
≤ 10 | 100 to 1000 | 10 to 100 | 10 to 100 | CC(=O)N1CCC(c2ccc(Nc3nc(N4CCC[C@@H](NC(=O)c5ccc(C6CC6)cc5)[C@H]4C)cnc3C(N)=O)cc2)CC1 [Example D-296, 3-{[4-(1-acetylpiperidin-4-yl)phenyl]amino}-5-[(2R,3R)-3-(4-cyclopropylbenzamido)-2-methylpiperidin-1-yl]pyrazine-2-carboxamide]
≤ 10 | 10 to 100 | 10 to 100 | ≤ 10 | C[C@@H]1[C@H](NC(=O)c2ccc(C3CC3)cn2)CCCN1c1cnc(C(N)=O)c(Nc2ccc(OC3CCN(C)CC3)cc2)n1 [Example D-297, 5-[(2R,3R)-3-(5-cyclopropylpyridine-2-amido)-2-methylpiperidin-1-yl]-3-({4-[(1-methylpiperidin-4-yl)oxy]phenyl}amino)pyrazine-2-carboxamide]
≤ 10 | 10 to 100 | 10 to 100 | ≤ 10 | C[C@@H]1[C@H](NC(=O)c2ccc(C(C)(C)O)cc2)CCCN1c1nnc(C(N)=O)c(Nc2cnn(C)c2)n1 [Example D-298, 3-[(2R,3R)-3-[4-(2-hydroxypropan-2-yl)benzamido]-2-methylpiperidin-1-yl]-5-[(1-methyl-1H-pyrazol-4-yl)amino]-1,2,4-triazine-6-carboxamide]
≤ 10 | 100 to 1000 | 100 to 1000 | 10 to 100 | C[C@@H]1[C@H](NC(=O)c2ccc(C3CC3)cc2)CCCN1c1cnc(C(N)=O)c(Nc2ccc(C3CCN(C)CC3)cc2)n1 [Example D-301, 5-[(2R,3R)-3-(4-cyclopropylbenzamido)-2-methylpiperidin-1-yl]-3-{[4-(1-methylpiperidin-4-yl)phenyl]amino}pyrazine-2-carboxamide]
